Test results: PubChem BioAssay AID180 (DTP/NCI, 2004)
Several values for one entry are separate records, joined by “and”; a condition that tells them apart may be missing. Equal entries are not always repeated.

System: BDF1 mice, Adenocarcinoma 755 s.c., tumor weight T/C
Test: NCI In Vivo Anticancer Drug Screen. Data for tumor model Adenocarcinoma 755 (subcutaneous) in B6D2F1 (BDF1) mice
Conditions: endpoint: mean tumor weight, higher = larger tumour
How it was run: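 Values express treated (T) relative to vehicle-dosed control (C) animals, based on survival or tumour size measured after compound treatment of mice bearing a transplanted tumour.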

[1] = dose: 100.0 mg/kg/injection, schedule: Q01DX011 (ip), vehicle: methylcellulose (MC)
[2] = dose: 31.0 mg/kg/injection, schedule: Q01DX011 (ip), vehicle: methylcellulose (MC)
[3] = dose: 62.0 mg/kg/injection, schedule: Q01DX011 (ip), vehicle: methylcellulose (MC)
[4] = dose: 15.0 mg/kg/injection, schedule: Q01DX011 (ip), vehicle: methylcellulose (MC)

Compound: OCC1OC(n2cnc3c(Cl)ncnc32)C(O)C1O (stereo not drawn)
- T/C (dose: 62.5 mg/kg/injection, schedule: Q01DX011 (ip), vehicle: carboxymethylcellulose (CMC)): 153 % of control
- T/C [1]: 72 % of control
- T/C (dose: 125.0 mg/kg/injection, schedule: Q01DX011 (ip), vehicle: carboxymethylcellulose (CMC)): 63 % of control
- T/C (dose: 200.0 mg/kg/injection, schedule: Q01DX011 (ip), vehicle: methylcellulose (MC)): 78 % of control
- T/C (dose: 250.0 mg/kg/injection, schedule: Q01DX011 (ip), vehicle: carboxymethylcellulose (CMC)): 55 % of control
- T/C (dose: 300.0 mg/kg/injection, schedule: Q01DX011 (ip), vehicle: methylcellulose (MC)): 90 % of control
- T/C (dose: 400.0 mg/kg/injection, schedule: Q01DX011 (ip), vehicle: methylcellulose (MC)): 63 % of control
- T/C (dose: 500.0 mg/kg/injection, schedule: Q01DX011 (ip), vehicle: methylcellulose (MC)): 11 % of control
- T/C (dose: 750.0 mg/kg/injection, schedule: Q01DX011 (ip), vehicle: methylcellulose (MC)): 4 % of control
- T/C (dose: 1000.0 mg/kg/injection, schedule: Q01DX011 (ip), vehicle: methylcellulose (MC)): 15 % of control

Compound: OCCn1cnc2c(SCc3ccccc3)ncnc21
- T/C (dose: 12.5 mg/kg/injection, schedule: Q01DX011 (ip), vehicle: methylcellulose (MC)): 108 % of control
- T/C (dose: 25.0 mg/kg/injection, schedule: Q01DX011 (ip), vehicle: methylcellulose (MC)): 17 % of control
- T/C (dose: 50.0 mg/kg/injection, schedule: Q01DX011 (ip), vehicle: methylcellulose (MC)): 3 % of control
- T/C (dose: 75.0 mg/kg/injection, schedule: Q01DX011 (ip), vehicle: methylcellulose (MC)): 3 % of control
- T/C [1]: 1 % of control

Compound: CCCCN(C)N=Nc1ccc(CCCC(=O)OCC)cc1
- T/C (dose: 25.0 mg/kg/injection, schedule: Q01DX011 (ip), vehicle: saline): 64 % of control
- T/C (dose: 50.0 mg/kg/injection, schedule: Q01DX011 (ip), vehicle: saline): 57 % of control
- T/C (dose: 75.0 mg/kg/injection, schedule: Q01DX011 (ip), vehicle: saline): 50 % of control

Compound: Cc1cccc(N=Nc2c(S(=O)(=O)O)cc3cc(NC(=O)Nc4ccc5c(O)c(N=Nc6ccc7cc(S(=O)(=O)O)ccc7c6)c(S(=O)(=O)O)cc5c4)ccc3c2O)c1
- T/C (dose: 45.0 mg/kg/injection, schedule: Q01DX011 (ip), vehicle: carboxymethylcellulose (CMC)): 81 % of control

Compound: CCCCOP(=O)(OCCCC)OCC1OC(n2cnc3c(=S)nc[nH]c32)C(O)C1O (stereo not drawn)
- T/C [2]: 100 % of control
- T/C [3]: 65 % of control
- T/C (dose: 125.0 mg/kg/injection, schedule: Q01DX011 (ip), vehicle: methylcellulose (MC)): 46 % of control

Compound: C[C@]12CC[C@@H]3c4ccc(O)cc4CC[C@H]3[C@@H]1CC[C@@H]2O
- T/C (dose: 125.0 mg/kg/injection, schedule: Q01DX011 (sc), vehicle: steriod suspending solution): 77 % of control
- T/C (dose: 250.0 mg/kg/injection, schedule: Q01DX011 (sc), vehicle: steriod suspending solution): 32 % of control
- T/C (dose: 500.0 mg/kg/injection, schedule: Q01DX011 (sc), vehicle: steriod suspending solution): 65 % of control
- T/C (dose: 1000.0 mg/kg/injection, schedule: Q01DX011 (sc), vehicle: steriod suspending solution): 42 % of control

Compound: [I][Hg][CH2]C1COC([CH2][Hg][I])CO1 (stereo not drawn)
- T/C (dose: 0.8 mg/kg/injection, schedule: Q#A X022 (ip), vehicle: carboxymethylcellulose (CMC)): 96 % of control
- T/C (dose: 1.25 mg/kg/injection, schedule: Q#A X022 (ip), vehicle: carboxymethylcellulose (CMC)): 43 % of control
- T/C (dose: 1.9 mg/kg/injection, schedule: Q#A X022 (ip), vehicle: carboxymethylcellulose (CMC)): 84 % of control
- T/C (dose: 2.85 mg/kg/injection, schedule: Q#A X022 (ip), vehicle: carboxymethylcellulose (CMC)): 35 % of control and 50 % of control
- T/C (dose: 2.9 mg/kg/injection, schedule: Q01DX006 (iv), vehicle: carboxymethylcellulose (CMC)): 154 % of control
- T/C (dose: 4.3 mg/kg/injection, schedule: Q#A X022 (ip), vehicle: carboxymethylcellulose (CMC)): 36 % of control
- T/C (dose: 4.4 mg/kg/injection, schedule: Q01DX006 (iv), vehicle: carboxymethylcellulose (CMC)): 90 % of control
- T/C (dose: 6.5 mg/kg/injection, schedule: Q#A X022 (ip), vehicle: carboxymethylcellulose (CMC)): 23 % of control
- T/C (dose: 6.6 mg/kg/injection, schedule: Q01DX006 (iv), vehicle: carboxymethylcellulose (CMC)): 95 % of control
- T/C (dose: 10.0 mg/kg/injection, schedule: Q01DX006 (iv), vehicle: carboxymethylcellulose (CMC)): 78 % of control
- T/C (dose: 22.0 mg/kg/injection, schedule: Q03DX004 (ip), vehicle: carboxymethylcellulose (CMC)): 62 % of control
- T/C (dose: 24.0 mg/kg/injection, schedule: Q01DX011 (oral), vehicle: carboxymethylcellulose (CMC)): 71 % of control
- T/C (dose: 25.0 mg/kg/injection, schedule: Q01DX011 (oral), vehicle: methylcellulose (MC)): 75 % of control
- T/C (dose: 35.0 mg/kg/injection, schedule: Q01DX001 (ip), vehicle: carboxymethylcellulose (CMC)): 96 % of control
- T/C (dose: 35.0 mg/kg/injection, schedule: Q01DX011 (oral), vehicle: carboxymethylcellulose (CMC)): 92 % of control
- T/C (dose: 35.0 mg/kg/injection, schedule: Q03DX004 (ip), vehicle: carboxymethylcellulose (CMC)): 69 % of control
- T/C (dose: 35.0 mg/kg/injection, schedule: Q07DX002 (ip), vehicle: carboxymethylcellulose (CMC)): 77 % of control
- T/C (dose: 50.0 mg/kg/injection, schedule: Q01DX011 (oral), vehicle: methylcellulose (MC)): 86 % of control
- T/C (dose: 50.0 mg/kg/injection, schedule: Q03DX004 (ip), vehicle: carboxymethylcellulose (CMC)): 51 % of control
- T/C (dose: 55.0 mg/kg/injection, schedule: Q01DX011 (oral), vehicle: carboxymethylcellulose (CMC)): 81 % of control
- T/C (dose: 60.0 mg/kg/injection, schedule: Q01DX011 (ip), vehicle: methylcellulose (MC)): 15 % of control
- T/C (dose: 80.0 mg/kg/injection, schedule: Q01DX011 (oral), vehicle: carboxymethylcellulose (CMC)): 78 % of control
- T/C (dose: 85.0 mg/kg/injection, schedule: Q01DX001 (ip), vehicle: carboxymethylcellulose (CMC)): 89 % of control
- T/C (dose: 100.0 mg/kg/injection, schedule: Q01DX011 (oral), vehicle: methylcellulose (MC)): 74 % of control
- T/C (dose: 120.0 mg/kg/injection, schedule: Q01DX011 (ip), vehicle: methylcellulose (MC)): 60 % of control
- T/C (dose: 160.0 mg/kg/injection, schedule: Q01DX011 (im), vehicle: carboxymethylcellulose (CMC)): 36 % of control
- T/C (dose: 160.0 mg/kg/injection, schedule: Q01DX011 (sc), vehicle: carboxymethylcellulose (CMC)): 42 % of control
- T/C (dose: 240.0 mg/kg/injection, schedule: Q01DX011 (sc), vehicle: carboxymethylcellulose (CMC)): 8 % of control
- T/C (dose: 360.0 mg/kg/injection, schedule: Q01DX011 (im), vehicle: carboxymethylcellulose (CMC)): 10 % of control

Compound: Cc1cnc(SCc2ccc(Cl)cc2Cl)nc1Nc1ccc(Cl)c(Cl)c1
- T/C [4]: 74 % of control
- T/C [2]: 97 % of control
- T/C [3]: 69 % of control

Compound: CSc1ncc(Br)c(=S)[nH]1
- T/C [4]: 74 % of control
- T/C [2]: 70 % of control

Compound: [I][Hg][CH2]C1COCC([CH2][Hg][I])O1.[I][Hg][CH2]C1COCC([CH2][Hg][I])O1 (stereo not drawn)
- T/C (dose: 10.0 mg/kg/injection, schedule: Q01DX011 (ip), vehicle: other): 59 % of control
- T/C (dose: 20.0 mg/kg/injection, schedule: Q01DX011 (ip), vehicle: other): 63 % of control
- T/C (dose: 40.0 mg/kg/injection, schedule: Q01DX011 (ip), vehicle: other): 31 % of control

Compound: O=C1C=C(c2ccccc2)C(=O)C=C1c1ccccc1
- T/C (dose: 12.5 mg/kg/injection, schedule: Q01DX011 (ip), vehicle: other): 72 % of control
- T/C (dose: 25.0 mg/kg/injection, schedule: Q01DX011 (ip), vehicle: other): 48 % of control

Compound: CC(=O)OCC1OC(n2cnc3c(=S)nc[nH]c32)C(OC(C)=O)C1OC(C)=O (stereo not drawn)
- T/C (dose: 0.2 mg/kg/injection, schedule: Q01DX011 (ip), vehicle: carboxymethylcellulose (CMC)): 84 % of control
- T/C (dose: 0.4 mg/kg/injection, schedule: Q01DX011 (ip), vehicle: carboxymethylcellulose (CMC)): 93 % of control
- T/C (dose: 0.9 mg/kg/injection, schedule: Q01DX011 (ip), vehicle: carboxymethylcellulose (CMC)): 61 % of control
- T/C (dose: 1.8 mg/kg/injection, schedule: Q01DX011 (ip), vehicle: carboxymethylcellulose (CMC)): 14 % of control and 31 % of control
- T/C (dose: 3.7 mg/kg/injection, schedule: Q01DX011 (ip), vehicle: carboxymethylcellulose (CMC)): 6 % of control
- T/C (dose: 7.5 mg/kg/injection, schedule: Q01DX011 (ip), vehicle: carboxymethylcellulose (CMC)): 3 % of control
- T/C (dose: 15.0 mg/kg/injection, schedule: Q01DX011 (ip), vehicle: carboxymethylcellulose (CMC)): 2 % of control

Compound: OC1C(O)C(O)C2(CO2)C(O)C1O (stereo not drawn)
- T/C (dose: 300.0 mg/kg/injection, schedule: Q01DX011 (ip), vehicle: saline): 99 % of control
